Data as given in patent US20210045385A1, “PYRIDAZINONE-SUBSTITUTED KETOXIMES AS HERBICIDES” (FMC Corporation, priority 2018, published 2021).

Assays:
Type in all cases: in vivo
[1] = system: duck salad (Heteranthera limosa); assay: Test D flooded paddy test, visual plant response rating; conditions: 250 g ai/ha, scale 0 to 100 (0 no effect, 100 complete control), 13 to 15 d
How it was run: (§1)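 Greenhouse paddy assay scored on a 0–100 visual scale after 13 to 15 d, where 100 means complete control and a dash marks no result; dosing was into 3 cm floodwater over 2-leaf plants.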

rice (Oryza sativa) = assay: as above; conditions: 250 g ai/ha, scale 0 to 100 (0 no effect, 100 complete control), 13 to 15 d
How it was run: as §1

[2] = system: barnyardgrass (Echinochloa crus-galli); assay: as above; conditions: 250 g ai/ha, scale 0 to 100 (0 no effect, 100 complete control), 13 to 15 d
How it was run: as §1

[3] = system: sedge umbrella (small-flower umbrella sedge, Cyperus difformis); assay: as above; conditions: 250 g ai/ha, scale 0 to 100 (0 no effect, 100 complete control), 13 to 15 d
How it was run: as §1

[4] = system: ragweed (common ragweed, Ambrosia artemisiifolia); assay: Test C preemergence, visual plant response rating
How it was run: (§2)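 Seeds sown in a loam–sand blend got a directed preemergence soil spray; postemergence plants (2–10 cm, one- to two-leaf stage) were sprayed with compound in a non-phytotoxic solvent plus surfactant. Injury was scored visually against untreated controls after about 10 d in a greenhouse on a 0–100 scale (100 = complete control).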

[5] = system: pigweed (Amaranthus retroflexus); assay: Test C preemergence, visual plant response rating
How it was run: as §2

kochia (Bassia scoparia) [6] = assay: Test C preemergence, visual plant response rating
How it was run: as §2

[7] = system: barnyardgrass (Echinochloa crus-galli); assay: Test C preemergence, visual plant response rating
How it was run: as §2

[8] = system: Italian ryegrass (Lolium mutiflorum); assay: Test C preemergence, visual plant response rating
How it was run: as §2

[9] = system: foxtail, giant (giant foxtail, Setaria faberi); assay: Test C preemergence, visual plant response rating
How it was run: as §2

corn (Zea mays) = assay: Test C postemergence, visual plant response rating
How it was run: as §2

[10] = system: blackgrass (Alopecurus myosuroides); assay: Test C postemergence, visual plant response rating
How it was run: as §2

[11] = system: galium (catchweed bedstraw, Galium aparine); assay: Test C postemergence, visual plant response rating
How it was run: as §2

[12] = system: ragweed (common ragweed, Ambrosia artemisiifolia); assay: Test C postemergence, visual plant response rating
How it was run: as §2

[13] = system: pigweed (Amaranthus retroflexus); assay: Test C postemergence, visual plant response rating
How it was run: as §2

kochia (Bassia scoparia) [14] = assay: Test C postemergence, visual plant response rating
How it was run: as §2

[15] = system: barnyardgrass (Echinochloa crus-galli); assay: Test C postemergence, visual plant response rating
How it was run: as §2

[16] = system: Italian ryegrass (Lolium mutiflorum); assay: Test C postemergence, visual plant response rating
How it was run: as §2

[17] = system: wheat (Triticum aestivum); assay: Test C postemergence, visual plant response rating
How it was run: as §2

[18] = system: foxtail, giant (giant foxtail, Setaria faberi); assay: Test C postemergence, visual plant response rating
How it was run: as §2

[19] = Test C, 31 g ai/ha, 0 is no effect, 100 is complete control
[20] = Test C, postemergence, 125 g ai/ha
[21] = Test C, postemergence, 31 g ai/ha
[22] = Test C, 125 g ai/ha, 0 is no effect, 100 is complete control

Row | SMILES | Plant response rating, Ducksalad (Flood) [1] | Plant response rating, Rice (Flood) (rice (Oryza sativa)) | Plant response rating, Barnyardgrass (Flood) [2] | Plant response rating, Sedge, Umbrella (Flood) [3] | Ragweed plant response rating (0 to 100 scale) [4, 19] | Pigweed plant response rating (0 to 100 scale) [5, 19] | Kochia plant response rating (0 to 100 scale) (kochia (Bassia scoparia) [6]; [19]) | Barnyardgrass plant response rating (0 to 100 scale) [7, 19] | Ryegrass, Italian plant response rating (0 to 100 scale) [8, 19] | Foxtail, Giant plant response rating (0 to 100 scale) [9, 19] | Corn plant response rating (0 to 100 scale) (corn (Zea mays); [20]) | Blackgrass plant response rating (0 to 100 scale) [10, 20] | Galium plant response rating (0 to 100 scale) [11, 20] | Ragweed plant response rating (0 to 100 scale) ([12]; Postemergence, 31 g ai/ha) | Ragweed plant response rating (0 to 100 scale) [12, 20] | Pigweed plant response rating (0 to 100 scale) ([13]; Postemergence, 31 g ai/ha) | Pigweed plant response rating (0 to 100 scale) [13, 20] | Kochia plant response rating (0 to 100 scale) (kochia (Bassia scoparia) [14]; [20]) | Barnyardgrass plant response rating (0 to 100 scale) [15, 20] | Ryegrass, Italian plant response rating (0 to 100 scale) ([16]; Postemergence, 31 g ai/ha) | further results
1 | Cc1nn(C)c(=O)c(/C(=N/OC(C)C)c2cc(Cl)cc(Cl)c2F)c1O [Compound 179] | 80 | 70 | 95 | 95 | 90 | 100 | 90 | 90 | 100 | 100 | 80 | 90 | 100 | 100 | 100 | 100 | 100 | 100 | 80 | 90 | Ragweed plant response rating (0 to 100 scale) ([4]; 125 g ai/ha): 100; Pigweed plant response rating (0 to 100 scale) ([5]; 125 g ai/ha): 100; Kochia plant response rating (0 to 100 scale) (kochia (Bassia scoparia) [6]; 125 g ai/ha): 90; Barnyardgrass plant response rating (0 to 100 scale) ([7]; 125 g ai/ha): 100; Ryegrass, Italian plant response rating (0 to 100 scale) ([8]; 125 g ai/ha): 100; Foxtail, Giant plant response rating (0 to 100 scale) ([9]; 125 g ai/ha): 100; Corn plant response rating (0 to 100 scale) (corn (Zea mays); Postemergence, 31 g ai/ha): 30; Blackgrass plant response rating (0 to 100 scale) ([10]; Postemergence, 31 g ai/ha): 80; Galium plant response rating (0 to 100 scale) ([11]; Postemergence, 31 g ai/ha): 100; Kochia plant response rating (0 to 100 scale) (kochia (Bassia scoparia) [14]; Postemergence, 31 g ai/ha): 80; Barnyardgrass plant response rating (0 to 100 scale) ([15]; Postemergence, 31 g ai/ha): 90; Ryegrass, Italian plant response rating (0 to 100 scale) [16, 20]: 100; Wheat plant response rating (0 to 100 scale) ([17]; Postemergence, 31 g ai/ha): 80; Wheat plant response rating (0 to 100 scale) [17, 20]: 100; Foxtail, Giant plant response rating (0 to 100 scale) ([18]; Postemergence, 31 g ai/ha): 90; Foxtail, Giant plant response rating (0 to 100 scale) [18, 20]: 100
2 | CON=C(c1cc(Cl)cc(Cl)c1F)c1c(O)c(C)nn(C)c1=O [Compound 153] | 55 | 40 | 80 | 70 | 90 | 100 | 60 | 80 | 100 | 90 | 50 | 80 | 100 | 90 | 100 | 100 | 100 | 100 | 90 | 90 | Ragweed plant response rating (0 to 100 scale) ([4]; 125 g ai/ha): 100; Pigweed plant response rating (0 to 100 scale) ([5]; 125 g ai/ha): 100; Kochia plant response rating (0 to 100 scale) (kochia (Bassia scoparia) [6]; 125 g ai/ha): 90; Barnyardgrass plant response rating (0 to 100 scale) ([7]; 125 g ai/ha): 90; Ryegrass, Italian plant response rating (0 to 100 scale) ([8]; 125 g ai/ha): 100; Foxtail, Giant plant response rating (0 to 100 scale) ([9]; 125 g ai/ha): 100; Corn plant response rating (0 to 100 scale) (corn (Zea mays); [21]): 20; Blackgrass plant response rating (0 to 100 scale) [10, 21]: 50; Galium plant response rating (0 to 100 scale) [11, 21]: 100; Kochia plant response rating (0 to 100 scale) (kochia (Bassia scoparia) [14]; [21]): 90; Barnyardgrass plant response rating (0 to 100 scale) [15, 21]: 80; Ryegrass, Italian plant response rating (0 to 100 scale) [16, 20]: 100; Wheat plant response rating (0 to 100 scale) ([17]; Postemergence, 31 g ai/ha): 40; Wheat plant response rating (0 to 100 scale) [17, 20]: 80; Foxtail, Giant plant response rating (0 to 100 scale) [18, 21]: 90; Foxtail, Giant plant response rating (0 to 100 scale) [18, 20]: 100
3 | CO/N=C(\c1c(O)cnn(C)c1=O)c1ccc(F)c2ccccc12 [Compound 303] | 0 | 0 | 0 | 0 | 0 | 10 | 0 | 0 | 0 | 0 | 0 | 0 | 70 | 10 | 20 | 40 | 60 | 50 | 10 | 20 | Ragweed plant response rating (0 to 100 scale) [4, 22]: 20; Pigweed plant response rating (0 to 100 scale) [5, 22]: 30; Kochia plant response rating (0 to 100 scale) (kochia (Bassia scoparia) [6]; [22]): 10; Barnyardgrass plant response rating (0 to 100 scale) [7, 22]: 0; Ryegrass, Italian plant response rating (0 to 100 scale) [8, 22]: 20; Foxtail, Giant plant response rating (0 to 100 scale) [9, 22]: 10; Corn plant response rating (0 to 100 scale) (corn (Zea mays); Postemergence, 31 g ai/ha): 0; Blackgrass plant response rating (0 to 100 scale) ([10]; Postemergence, 31 g ai/ha): 0; Galium plant response rating (0 to 100 scale) ([11]; Postemergence, 31 g ai/ha): 30; Kochia plant response rating (0 to 100 scale) (kochia (Bassia scoparia) [14]; Postemergence, 31 g ai/ha): 40; Barnyardgrass plant response rating (0 to 100 scale) ([15]; Postemergence, 31 g ai/ha): 0; Ryegrass, Italian plant response rating (0 to 100 scale) [16, 20]: 40; Wheat plant response rating (0 to 100 scale) ([17]; Postemergence, 31 g ai/ha): 0; Wheat plant response rating (0 to 100 scale) [17, 20]: 0; Foxtail, Giant plant response rating (0 to 100 scale) ([18]; Postemergence, 31 g ai/ha): 0; Foxtail, Giant plant response rating (0 to 100 scale) [18, 20]: 20
4 | Cc1nn(C)c(=O)c(C(=NOC(C)C)c2cc(Cl)cc(Cl)c2Cl)c1O [Compound 295] | 65 | 60 | 60 | 70 | 90 | 80 | 0 | 0 | 80 | 100 | 30 | 0 | 100 | 100 | 100 | 60 | 90 | 50 | 70 | 100 | Ragweed plant response rating (0 to 100 scale) [4, 22]: 100; Pigweed plant response rating (0 to 100 scale) [5, 22]: 100; Kochia plant response rating (0 to 100 scale) (kochia (Bassia scoparia) [6]; [22]): 70; Barnyardgrass plant response rating (0 to 100 scale) [7, 22]: 0; Ryegrass, Italian plant response rating (0 to 100 scale) [8, 22]: 100; Foxtail, Giant plant response rating (0 to 100 scale) [9, 22]: 100; Corn plant response rating (0 to 100 scale) (corn (Zea mays); Postemergence, 31 g ai/ha): 0; Blackgrass plant response rating (0 to 100 scale) ([10]; Postemergence, 31 g ai/ha): 0; Galium plant response rating (0 to 100 scale) ([11]; Postemergence, 31 g ai/ha): 100; Kochia plant response rating (0 to 100 scale) (kochia (Bassia scoparia) [14]; Postemergence, 31 g ai/ha): 0; Barnyardgrass plant response rating (0 to 100 scale) ([15]; Postemergence, 31 g ai/ha): 50; Ryegrass, Italian plant response rating (0 to 100 scale) [16, 20]: 100; Wheat plant response rating (0 to 100 scale) ([17]; Postemergence, 31 g ai/ha): 30; Wheat plant response rating (0 to 100 scale) [17, 20]: 100; Foxtail, Giant plant response rating (0 to 100 scale) ([18]; Postemergence, 31 g ai/ha): 70; Foxtail, Giant plant response rating (0 to 100 scale) [18, 20]: 90
